In patent US20230365533A1, “BICYCLOHEPTANE PYRROLIDINE OREXIN RECEPTOR AGONISTS” (MERCK SHARP & DOHME CORP., priority 2021, published 2023):

The compounds below were run against T1, human OX2R (Homo sapiens, UniProt O43614) (assay: IPOne (IP-1) orexin receptor agonist assay in CHO cells expressing human OX2R). Settings: CHO, percent of mean max effect of a reference compound at 1 uM with 100% activity vs Orexin A, human OX2R.
T1 construct: expressed in transfected cells; host or cells: CHO (Chinese hamster ovary) cells, grown under G418 selection
T1 sequence (O43614 1-444): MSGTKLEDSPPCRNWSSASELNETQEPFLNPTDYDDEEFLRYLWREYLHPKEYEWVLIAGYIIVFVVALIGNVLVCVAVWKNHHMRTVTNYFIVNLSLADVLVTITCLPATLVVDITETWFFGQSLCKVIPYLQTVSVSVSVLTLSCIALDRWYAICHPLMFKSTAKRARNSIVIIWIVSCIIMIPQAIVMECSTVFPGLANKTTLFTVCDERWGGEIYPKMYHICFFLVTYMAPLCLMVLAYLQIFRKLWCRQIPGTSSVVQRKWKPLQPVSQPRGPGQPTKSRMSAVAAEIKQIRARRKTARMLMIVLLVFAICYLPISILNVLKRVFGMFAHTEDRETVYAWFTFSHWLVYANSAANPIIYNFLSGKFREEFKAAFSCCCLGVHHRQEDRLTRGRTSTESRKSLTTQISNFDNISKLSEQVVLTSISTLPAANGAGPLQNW
Assay type: cell-based
Excerpt: The utility of the compounds in accordance with the present invention as orexin receptor OX1R and/or OX2R agonists may be readily determined without undue experimentation by methodology well known in the art. Both the OX1R and/or OX2R G-coupled protein receptors (GPCRs) couple through the Gaq signaling pathway, which ultimately promotes calcium mobilization via inositol triphosphate (IP3) production. The half-life of IP-3 is relatively short, being rapidly metabolized to inositol monophosphate (IP-1), which can be readily detected using a commercially available assay kit (IP-One; Cisbio; cat #621PAPEC) coupled with a cell line expressing the target receptor(s) of interest. The utility of the compounds in accordance with the present invention as orexin receptor OX1R and/or OX2R agonists may be determined utilizing this assay.
In a typical experiment, the OX1 and OX2 receptor agonist activity is determined in accordance with the following general experimental method. Chinese hamster ovary (CHO) cells expressing human OX1R and/or the human OX2R were grown in Iscove's modified DMEM containing glutaMAX™, 1% G418, 100 U/mL penicillin, 100 μg/mL streptomycin and 10% heat-inactivated qualified fetal bovine serum (FBS). The OX2R cells were seeded at 10,000 cells/well/50 μL and the OX1R cells were seeded at 20,000 cells/well/50 μL into 384-well white tissue culture plates (Greiner; cat #781080). All cell/media reagents were from GIBCO-Invitrogen Corp. The seeded cell plate(s) were incubated at 37° C. with 5% CO2 and 85% humidity for 20-24 hours. On the day of the assay, assay-ready compound plates were prepared using an acoustic liquid handler (ECHO; Labcyte), which dispensed sufficient volume of test compound stock (10 mM in DMSO) or 100% DMSO to prepare 10 point, ½-log dilutions in a final volume of 202.5 nL/well in all test wells of a 384-well diamond plate (Labcyte). Following completion of assay-ready plates, importantly, the next three steps were performed with minimal delay: 1) 20 μl of 1×stimulation buffer was added to the compound plate using a Multidrop Combi (small cassette, Thermo Fisher Scientific cat #24073290); 2) culture medium was removed from the cell plate using the Bluewasher plate washer (gentle spin; BlueCatBio); 3) 14 μl of compound/stimulation buffer mixture was added to the cell plate using a Bravo liquid handler (Agilent) prior to incubating cell plates at 37° C. with 5% CO2 and 85% humidity for 1 or 2 hours (OX1R and OX2R, respectively). During this incubation, IP-one detection reagents were prepared (38:1:1 lysis buffer:D2:AB-cryptate reagents). Six μL of mixed detection reagents were added to the cell plate using a Multidrop Combi (small cassette, Thermo Fisher Scientific cat #24073290) and incubated 60 minutes at room temperature in the dark. Fluorescence signal was detected using an Envision plate reader (Perkin Elmer) [LANCE/DELFIA Dual Enh (Em: APC 665; Ex: Cy5 620)].
For each compound, data were fit to a four parameter logistic fit (ActivityBase software) and the EC50 was reported as the inflection point of the resulting curve. Percent effect for each test compound was determined as the percentage of sample raw value/mean max effect, where the mean max effect was derived from the mean raw value of 32 control wells per assay plate (using Orexin A (cat #003-30) at 1 μM for human OX1R and a reference compound at 1 uM with 100% activity previously established by comparison to Orexin A for human OX2R). The intrinsic orexin receptor agonist activity of a compound which may be used in the present invention may be determined by these assays.

Emax [%]	Structure (SMILES)
100	COC(=O)N1[C@H](C)C[C@H](NS(=O)(=O)N(C)C)[C@@H]1COC1CCC2(c3ncc(F)cn3)CC2C1 (stereo partly drawn) [Example 169, methyl (2R,3S,5R)-3-((N,N-dimethylsulfamoyl)amino)-2-(((6-(5-fluoropyrimidin-2-yl)bicyclo[4.1.0]heptan-3-yl)oxy)methyl)-5-methylpyrrolidine-1-carboxylate]

Same assay, conditions: IPOne assay, CHO cells expressing human OX2R, 2 hours incubation; read-out: hoX2R_IP IC50

IC50 [nM]	Structure (SMILES)
323	COC(=O)N1[C@H](C)C[C@H](NS(=O)(=O)N(C)C)[C@@H]1COC1CCC2(c3cnccn3)CC2C1 (stereo partly drawn) [Example 10, methyl (2R,3S,5R)-3-((N,N-dimethylsulfamoyl)amino)-5-methyl-2-(((6-(pyrazin-2-yl)bicyclo[4.1.0]heptan-3-yl)oxy)methyl)pyrrolidine-1-carboxylate]
146	COC(=O)N1[C@H](C)C[C@H](NS(=O)(=O)N(C)C)[C@@H]1COC1CCC2(c3cnccn3)CC2C1 (single isomer, unassigned) [Example 11]
50.7	COC(=O)N1[C@H](C)C[C@H](NS(C)(=O)=O)[C@@H]1CO[C@H]1CC[C@@]2(c3nccs3)C[C@H]2C1 (single isomer, unassigned) [Example 146]
299	COC(=O)N1[C@H](C)C[C@H](NS(C)(=O)=O)[C@@H]1COC1CCC2(c3ncc(F)c(C4CC4)n3)CC2C1 (stereo partly drawn) [Example 74, methyl (2R,3S,5R)-2-(((6-(4-cyclopropyl-5-fluoropyrimidin-2-yl)bicyclo[4.1.0]heptan-3-yl)oxy)methyl)-5-methyl-3-(methylsulfonamido)pyrrolidine-1-carboxylate]
0.93	CCS(=O)(=O)N[C@H]1C[C@@H](C)N(C(=O)OC)[C@H]1CO[C@H]1CC[C@@]2(c3ncc(F)cn3)C[C@H]2C1 [Example 36, methyl (2R,3S,5R)-3-(ethylsulfonamido)-2-((((1S,3S,6R)-6-(5-fluoropyrimidin-2-yl)bicyclo[4.1.0]heptan-3-yl)oxy)methyl)-5-methylpyrrolidine-1-carboxylate]
187	COC(=O)N1[C@H](C)C[C@H](NS(C)(=O)=O)[C@@H]1COC1CCC2(c3ncc(Cl)c(C(F)(F)F)n3)CC2C1 (stereo partly drawn) [Example 72, methyl (2R,3S,5R)-2-(((6-(5-chloro-4-(trifluoromethyl)pyrimidin-2-yl)bicyclo[4.1.0]heptan-3-yl)oxy)methyl)-5-methyl-3-(methylsulfonamido)pyrrolidine-1-carboxylate]

More lines, now with the values behind:

Structure (SMILES)	IC50 [nM]
COC(=O)N1[C@H](C)C[C@H](NS(=O)(=O)CF)[C@@H]1COC1CCC2(c3ncc(F)c(OC)n3)CC2C1 (stereo partly drawn) [Example 85, methyl (2R,3S,5R)-2-(((6-(5-fluoro-4-methoxypyrimidin-2-yl)bicyclo[4.1.0]heptan-3-yl)oxy)methyl)-3-((fluoromethyl)sulfonamido)-5-methylpyrrolidine-1-carboxylate]	25.2
CCS(=O)(=O)N[C@H]1CCCN(C(=O)OC(C)C)[C@H]1COC1CC[C@@]2(c3ncc(F)cn3)CC2C1 (stereo partly drawn) [Example 126, isopropyl (2R,3S)-3-(ethylsulfonamido)-2-(((6-(5-fluoropyrimidin-2-yl)bicyclo[4.1.0]heptan-3-yl)oxy)methyl)piperidine-1-carboxylate]	3.3
COC(=O)N1[C@H](C)C[C@H](NS(=O)(=O)N(C)C)[C@@H]1COC1CCC2(c3ncccn3)C(C1)C2(F)F (stereo partly drawn) [Example 7, methyl (2R,3S,5R)-2-(((7,7-difluoro-6-(pyrimidin-2-yl)bicyclo[4.1.0]heptan-3-yl)oxy)methyl)-3-((N,N-dimethylsulfamoyl)amino)-5-methylpyrrolidine-1-carboxylate]	9390
CC(C)OC(=O)N1[C@H](C)C[C@H](NS(=O)(=O)CF)[C@@H]1COC1CCC2(c3ncc(F)cn3)CC2C1 (stereo partly drawn) [Example 111, isopropyl (2R,3S,5R)-3-((fluoromethyl)sulfonamido)-2-(((6-(5-fluoropyrimidin-2-yl)bicyclo[4.1.0]heptan-3-yl)oxy)methyl)-5-methylpyrrolidine-1-carboxylate]	1
COC(=O)N1[C@H](C)C[C@H](NS(=O)(=O)C(F)(F)F)[C@@H]1CO[C@@H]1CC[C@]2(c3ncc(F)cn3)C[C@@H]2C1 [Example 44, methyl (2R,3S,5R)-2-((((1R,3R,6S)-6-(5-fluoropyrimidin-2-yl)bicyclo[4.1.0]heptan-3-yl)oxy)methyl)-5-methyl-3-((trifluoromethyl)sulfonamido)pyrrolidine-1-carboxylate]	17.4
C[C@@H]1C[C@H](NS(C)(=O)=O)[C@H](CO[C@H]2CC[C@@]3(c4ncc(F)cn4)C[C@H]3C2)N1C(=O)O[C@H]1COC[C@@H]1F [Example 56, (3S,4S)-4-fluorotetrahydrofuran-3-yl (2R,3S,5R)-2-((((1S,3S,6R)-6-(5-fluoropyrimidin-2-yl)bicyclo[4.1.0]heptan-3-yl)oxy)methyl)-5-methyl-3-(methylsulfonamido)pyrrolidine-1-carboxylate]	9.2
C[C@@H]1C[C@H](NS(C)(=O)=O)[C@H](CO[C@H]2CC[C@@]3(c4ncc(F)cn4)C[C@H]3C2)N1C(=O)OCC(F)C1CCC1 (stereo partly drawn) [Example 54, 2-cyclobutyl-2-fluoroethyl (2R,3S,5R)-2-((((1S,3S,6R)-6-(5-fluoropyrimidin-2-yl)bicyclo[4.1.0]heptan-3-yl)oxy)methyl)-5-methyl-3-(methylsulfonamido)pyrrolidine-1-carboxylate]	6
C[C@@H]1C[C@H](NS(C)(=O)=O)[C@H](CO[C@H]2CC[C@@]3(c4ncc(F)cn4)C[C@H]3C2)N1C(=O)OCC(C)(F)F [Example 64, 2,2-difluoropropyl (2R,3S,5R)-2-((((1S,3S,6R)-6-(5-fluoropyrimidin-2-yl)bicyclo[4.1.0]heptan-3-yl)oxy)methyl)-5-methyl-3-(methylsulfonamido)pyrrolidine-1-carboxylate]	2.1
CC(C)OC(=O)N1CCC[C@H](NS(=O)(=O)C(F)F)[C@@H]1CO[C@H]1CC[C@@]2(c3ncc(F)cn3)C[C@H]2C1 [Example 121, isopropyl (2R,3S)-3-((difluoromethyl)sulfonamido)-2-((((1S,3S,6R)-6-(5-fluoropyrimidin-2-yl)bicyclo[4.1.0]heptan-3-yl)oxy)methyl)piperidine-1-carboxylate]	0.86
CC(C)OC(=O)N1[C@H](C)C[C@H](NS(=O)(=O)N(C)C)[C@@H]1COC1CCC2(c3ncc(F)cn3)CC2C1 (stereo partly drawn) [Example 164, isopropyl (2R,3S,5R)-3-((N,N-dimethylsulfamoyl)amino)-2-(((6-(5-fluoropyrimidin-2-yl)bicyclo[4.1.0]heptan-3-yl)oxy)methyl)-5-methylpyrrolidine-1-carboxylate]	2.6
COC(=O)N1[C@H](C)C[C@H](NS(=O)(=O)CF)[C@@H]1COC1CCC2(c3ncc(Br)cn3)CC2C1 (stereo partly drawn) [Example 89, methyl (2R,3S,5R)-2-(((6-(5-bromopyrimidin-2-yl)bicyclo[4.1.0]heptan-3-yl)oxy)methyl)-3-((fluoromethyl)sulfonamido)-5-methylpyrrolidine-1-carboxylate]	1
